Assay results taken from ChEMBL document CHEMBL1201862, “PubChem BioAssay data set” (2004).
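Assay format: 96-well plates, 48-hour exposure. GI50 = concentration required for 50% inhibition of growth.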 Activity calls are given as the source filed them. Rule as the data show it: active = GI50 up to about 1.1 µM and inactive = higher.

How the values were obtained:
Assay in all cases: NCI anticancer screen, dose series, 48 h
786-0 = test system: 786-0
HCT-15 = test system: HCT-15
LOX IMVI = test system: LOX IMVI
LXFL 529 = test system: LXFL 529
M14 = test system: M14
M19-MEL = test system: M19-MEL
MOLT-4 = test system: MOLT-4
NCI-H226 = test system: NCI-H226
NCI-H460 = test system: NCI-H460
SF-268 = test system: SF-268
SK-MEL-2 = test system: SK-MEL-2
SN12C = test system: SN12C
SW-620 = test system: SW-620
UACC-257 = test system: UACC-257
UO-31 = test system: UO-31
COLO 205 = test system: COLO 205

Row | SMILES | GI50 (786-0) | GI50 (HCT-15) | GI50 (LOX IMVI) | GI50 (LXFL 529) | GI50 (M14) | GI50 (M19-MEL) | GI50 (MOLT-4) | GI50 (NCI-H226) | GI50 (NCI-H460) | GI50 (SF-268) | GI50 (SK-MEL-2) | GI50 (SN12C) | GI50 (SW-620) | GI50 (UACC-257) | GI50 (UO-31) | GI50 (COLO 205)
1 | CCOC(=O)C1=C(C)N(NC(=O)c2ccccc2)C2(O)CCCC12C(=O)OCC (configuration not stated) | > 100 µM (inactive) | > 100 µM | > 100 µM (inactive) | > 100 µM (inactive) | > 100 µM (inactive) | > 100 µM (inactive) | > 100 µM (inactive) | > 100 µM (inactive) | > 100 µM (inactive) | > 100 µM (inactive) | > 100 µM (inactive) | > 100 µM (inactive) | > 100 µM (inactive) | > 100 µM (inactive) | > 100 µM (inactive) | –
2 | BrC1=CCC23CC=C(Br)[C@H]4CC2(COC3)C[C@@H]1O4 (some centres not stated) | 33.2 µM (inactive) | 47.9 µM | 71.6 µM (inactive) | 40.3 µM (inactive) | > 100 µM (inactive) | > 100 µM (inactive) | 25.8 µM (inactive) | 44.1 µM (inactive) | 48 µM (inactive) | 16.9 µM (inactive) | 54.7 µM (inactive) | 52 µM (inactive) | 55 µM (inactive) | – | 28.2 µM (inactive) | > 100 µM (inactive)
3 | COC12CC(O)=C(C(C)=O)C(=O)C1(C)c1c(OC(C)=O)c(C)c(O)c(C(C)=O)c1O2 (configuration not stated) | 18.9 µM (inactive) | 13.6 µM | 10.2 µM (inactive) | 14.3 µM (inactive) | 22.5 µM (inactive) | 23.2 µM (inactive) | 18.6 µM (inactive) | 13.8 µM (inactive) | 13.2 µM (inactive) | 23.6 µM (inactive) | 19 µM (inactive) | 11.6 µM (inactive) | 22.7 µM (inactive) | 23.6 µM (inactive) | 4.35 µM (inactive) | –
4 | CC(=O)OC1COC(n2c(=S)n(-c3ccccc3)c(=O)c3cc(Br)ccc32)C(OC(C)=O)C1OC(C)=O (configuration not stated) | 34.1 µM (inactive) | > 100 µM | 57.1 µM (inactive) | 27 µM (inactive) | 30.8 µM (inactive) | 53.6 µM (inactive) | > 100 µM (inactive) | 83.4 µM (inactive) | 65.2 µM (inactive) | 29.1 µM (inactive) | 45.1 µM (inactive) | 71.1 µM (inactive) | > 100 µM (inactive) | 55.2 µM (inactive) | > 100 µM (inactive) | > 100 µM (inactive)
5 | CCOC(=O)NN1C(=O)C(=P(c2ccccc2)(c2ccccc2)c2ccccc2)C(C(=O)OC)=C1C | > 100 µM (inactive) | > 100 µM | > 100 µM (inactive) | > 100 µM (inactive) | > 100 µM (inactive) | > 100 µM (inactive) | > 100 µM (inactive) | > 100 µM (inactive) | > 100 µM (inactive) | > 100 µM (inactive) | > 100 µM (inactive) | > 100 µM (inactive) | > 100 µM (inactive) | > 100 µM (inactive) | > 100 µM (inactive) | > 100 µM (inactive)
6 | CCCCC#COS(=O)(=O)c1ccc(C)cc1 | > 100 µM (inactive) | > 100 µM | > 100 µM (inactive) | 64 µM (inactive) | > 100 µM (inactive) | 69.7 µM (inactive) | 88.1 µM (inactive) | 14.7 µM (inactive) | 79.3 µM (inactive) | > 100 µM (inactive) | > 100 µM (inactive) | > 100 µM (inactive) | > 100 µM (inactive) | > 100 µM (inactive) | > 100 µM (inactive) | > 100 µM (inactive)
7 | COC(OC)c1cccc2c1C(=O)CCC1(O)c3ccccc3C1C2 (configuration not stated) | > 100 µM (inactive) | > 100 µM | > 100 µM (inactive) | 86.3 µM (inactive) | > 100 µM (inactive) | > 100 µM (inactive) | 65.5 µM (inactive) | 83.8 µM (inactive) | – | > 100 µM (inactive) | > 100 µM (inactive) | > 100 µM (inactive) | > 100 µM (inactive) | 84.1 µM (inactive) | > 100 µM (inactive) | > 100 µM (inactive)
8 | CC1(O)C(C)(O)C(C)(O)C1(C)O (configuration not stated) | > 100 µM (inactive) | > 100 µM | > 100 µM (inactive) | > 100 µM (inactive) | > 100 µM (inactive) | > 100 µM (inactive) | > 100 µM (inactive) | > 100 µM (inactive) | > 100 µM (inactive) | > 100 µM (inactive) | > 100 µM (inactive) | > 100 µM (inactive) | > 100 µM (inactive) | > 100 µM (inactive) | > 100 µM (inactive) | > 100 µM (inactive)
9 | CCCCN(CCCC)C(=O)C(=O)CC(=O)/C=C/c1ccccc1 | > 100 µM (inactive) | > 100 µM | > 100 µM (inactive) | > 100 µM (inactive) | > 100 µM (inactive) | > 100 µM (inactive) | > 100 µM (inactive) | > 100 µM (inactive) | > 100 µM (inactive) | > 100 µM (inactive) | > 100 µM (inactive) | > 100 µM (inactive) | > 100 µM (inactive) | > 100 µM (inactive) | > 100 µM (inactive) | > 100 µM (inactive)
10 | O=c1c2cccnc2ncn1CCN1CCCC1 | > 100 µM (inactive) | – | > 100 µM (inactive) | > 100 µM (inactive) | > 100 µM (inactive) | > 100 µM (inactive) | > 100 µM (inactive) | > 100 µM (inactive) | > 100 µM (inactive) | > 100 µM (inactive) | > 100 µM (inactive) | > 100 µM (inactive) | > 100 µM (inactive) | – | > 100 µM (inactive) | > 100 µM (inactive)
11 | NCc1cccc(O)c1O | > 100 µM (inactive) | > 100 µM | > 100 µM (inactive) | > 100 µM (inactive) | > 100 µM (inactive) | 48.9 µM (inactive) | > 100 µM (inactive) | > 100 µM (inactive) | > 100 µM (inactive) | > 100 µM (inactive) | > 100 µM (inactive) | > 100 µM (inactive) | > 100 µM (inactive) | > 100 µM (inactive) | > 100 µM (inactive) | > 100 µM (inactive)
12 | C[C@]12CCC3c4ccc(OC(=O)c5ccccc5)cc4CC[C@H]3C1CC[C@@H]2OC(=O)C12OC1CCC2=O (some centres not stated) | 2.67 µM (inactive) | 5.55 µM | 3.33 µM (inactive) | 1.91 µM (inactive) | 5.79 µM (inactive) | 5.96 µM (inactive) | 2.32 µM (inactive) | 14.9 µM (inactive) | 4.26 µM (inactive) | 2.68 µM (inactive) | 7.94 µM (inactive) | 5.9 µM (inactive) | 2.64 µM (inactive) | 5.81 µM (inactive) | 5.75 µM (inactive) | 2.84 µM (inactive)
13 | CCCCNC(=O)OCC(COc1ccccc1OC)OC(=O)NCCCC (configuration not stated) | > 100 µM (inactive) | > 100 µM | > 100 µM (inactive) | > 100 µM (inactive) | > 100 µM (inactive) | > 100 µM (inactive) | > 100 µM (inactive) | > 100 µM (inactive) | > 100 µM (inactive) | > 100 µM (inactive) | > 100 µM (inactive) | > 100 µM (inactive) | > 100 µM (inactive) | > 100 µM (inactive) | 63.8 µM (inactive) | > 100 µM (inactive)
